For 5 molecules, EC50 results are on record in PubChem BioAssay AID1347042.

The test system of this assay is MutuI BL cells, EBV BHLF1 promoter luciferase, 48 h. Kind of assay: EBV lytic cycle activators, dose response, cell-based, MutuI Burkitt lymphoma, luciferase (AID 1347042).

The EC50 is the concentration that produces a half-maximal response. Regarding `COC(=O)c1ccccc1NC(=O)N1CCc2c([nH]c3ccc(Cl)cc23)C1c1ccc(OC)cc1` (stereo not given), the EC50 is 158 nM. Next, `COc1ccc(C2c3[nH]c4ccc(Cl)cc4c3CCN2C(=O)Nc2ccc(OC)cc2OC)cc1` (stereo not given): 113 nM; `CCOC(=O)c1ccccc1NC(=O)N1CCc2c([nH]c3ccc(OC)cc23)C1c1ccc(C)cc1` (stereo not given): 108 nM.

As to `COC(=O)c1sccc1NC(=O)N1CCc2c([nH]c3ccc(OC)cc23)C1c1ccc(C)cc1` (stereo not given), the 50% effective concentration (EC50) is 576 nM. Consider `COc1ccccc1NC(=O)N1CCc2c([nH]c3ccc(Cl)cc23)C1c1ccc(C)cc1` (stereo not given), for which the EC50 is 170 nM.
